Measurements taken from BigSolDB 2.1.

With `COC1=C(OC)C(=O)C(C/C=C(\C)CC/C=C(\C)CC/C=C(\C)CC/C=C(\C)CC/C=C(\C)CC/C=C(\C)CC/C=C(\C)CC/C=C(\C)CC/C=C(\C)CCC=C(C)C)=C(C)C1=O` the solubility (mole fraction) (in ethanol, 270.15 K) was 1e-05, the solubility (mole fraction) (in ethanol, 280.15 K) was 1.1e-05 and the solubility (mole fraction) (in ethanol, 290.15 K) was 1.6e-05. The solubility (mole fraction) (in ethanol, 300.15 K) was 6.1e-05, the solubility (mole fraction) (in ethanol, 310.15 K) was 0.0002 and the solubility (mole fraction) (in ethanol, 320.15 K) was 0.0014. It also gave a solubility (mole fraction) (in ethyl acetate, 270.15 K) of 0.0006, a solubility (mole fraction) (in ethyl acetate, 280.15 K) of 0.0033 and a solubility (mole fraction) (in ethyl acetate, 290.15 K) of 0.0178. It also gave a solubility (mole fraction) (in ethyl acetate, 300.15 K) of 0.09, a solubility (mole fraction) (in ethyl acetate, 310.15 K) of 0.431 and a solubility (mole fraction) (in ethyl acetate, 320.15 K) of 0.647. For the same compound, the solubility (mole fraction) (in isopropanol, 270.15 K) was 7e-06, the solubility (mole fraction) (in isopropanol, 280.15 K) was 8e-06 and the solubility (mole fraction) (in isopropanol, 290.15 K) was 6.2e-05. The solubility (mole fraction) (in isopropanol, 300.15 K) was 0.0005, the solubility (mole fraction) (in isopropanol, 310.15 K) was 0.0029 and the solubility (mole fraction) (in isopropanol, 320.15 K) was 0.0165. The solubility (mole fraction) (in n-butanol, 270.15 K) was 1e-05, the solubility (mole fraction) (in n-butanol, 280.15 K) was 1.7e-05 and the solubility (mole fraction) (in n-butanol, 290.15 K) was 0.0001. For the same compound, the solubility (mole fraction) (in n-butanol, 300.15 K) was 0.0011, the solubility (mole fraction) (in n-butanol, 310.15 K) was 0.0107 and the solubility (mole fraction) (in n-butanol, 320.15 K) was 0.0934. The solubility (mole fraction) (in n-hexane, 270.15 K) was 0.0009, the solubility (mole fraction) (in n-hexane, 280.15 K) was 0.0044 and the solubility (mole fraction) (in n-hexane, 290.15 K) was 0.0207. For the same compound, the solubility (mole fraction) (in n-hexane, 300.15 K) was 0.0931, the solubility (mole fraction) (in n-hexane, 310.15 K) was 0.399 and the solubility (mole fraction) (in n-hexane, 320.15 K) was 0.55. The solubility (mole fraction) (in n-propanol, 280.15 K) was 0.0002, the solubility (mole fraction) (in n-propanol, 290.15 K) was 0.0005 and the solubility (mole fraction) (in n-propanol, 300.15 K) was 0.0014. It also gave a solubility (mole fraction) (in n-propanol, 310.15 K) of 0.0039 and a solubility (mole fraction) (in n-propanol, 320.15 K) of 0.011.
